Data as given in PubChem BioAssay (NCI).
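Results reflect a 48-hour exposure of cells in 96-well plates to compound at five concentrations. At the TGI there is no net growth.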 *1 amine or outer side, *2 acyl side, *3 side chain or, on linkers, in order; H or OH if unused. Where a SMILES comes first, the peptide text is derived from it. [ ]: non-standard residue; d: D form. The star is where a group is joined. ξ: configuration not given here. Phe(4-NO2) = N[CH](Cc1ccc([N+](=O)[O-])cc1)C(=O)O; X22 = O=C(C(CC(O)CO)O[*:1])[*:2]; Ile(3ξ) = CCC(C)[C@H](N)C(=O)O; NMeV = CN[C@H](C(=O)O)C(C)C; NMeA = CN[C@@H](C)C(=O)O; Boc = CC(C)(C)OC(=O)*; βAla = NCCC(=O)O

Experiments:
Assay in all cases: inhibition of tumour cell growth, NCI panel, 48 h
SNB-75 CNS = tested on: SNB-75 CNS
HCT-15 colon = tested on: HCT-15 colon
K-562 leukemia = tested on: K-562 leukemia
TK-10 renal = tested on: TK-10 renal
OVCAR-5 ovarian = tested on: OVCAR-5 ovarian
A549 NSCLC = tested on: A549 NSCLC
SW-620 colon = tested on: SW-620 colon
UACC-257 melanoma = tested on: UACC-257 melanoma
OVCAR-3 ovarian = tested on: OVCAR-3 ovarian
NCI-H226 lung = tested on: NCI-H226 lung
SK-MEL-2 melanoma = tested on: SK-MEL-2 melanoma
M14 melanoma = tested on: M14 melanoma
SF-539 CNS = tested on: SF-539 CNS
HL-60(TB) leukemia = tested on: HL-60(TB) leukemia
NCI-H522 lung = tested on: NCI-H522 lung
BT-549 breast = tested on: BT-549 breast
MDA-MB-435 = tested on: MDA-MB-435
U251 CNS = tested on: U251 CNS
DU-145 prostate = tested on: DU-145 prostate
MDA-MB-231 breast = tested on: MDA-MB-231 breast

Row | Compound | TGI (SNB-75 CNS) [µM] | TGI (HCT-15 colon) [µM] | TGI (K-562 leukemia) [µM] | TGI (TK-10 renal) [µM] | TGI (OVCAR-5 ovarian) [µM] | TGI (A549 NSCLC) [µM] | TGI (SW-620 colon) [µM] | TGI (UACC-257 melanoma) [µM] | TGI (OVCAR-3 ovarian) [µM] | TGI (NCI-H226 lung) [µM] | TGI (SK-MEL-2 melanoma) [µM] | TGI (M14 melanoma) [µM] | TGI (SF-539 CNS) [µM] | TGI (HL-60(TB) leukemia) [µM] | TGI (NCI-H522 lung) [µM] | TGI (BT-549 breast) [µM] | TGI (MDA-MB-435) [µM] | TGI (U251 CNS) [µM] | TGI (DU-145 prostate) [µM] | TGI (MDA-MB-231 breast) [µM]
1 | CCOC(=O)c1c2ccc(/C=C/c3ccccc3)ccc-2c(C(=O)OCC)c1N | 99.4 | > 100 | > 100 | > 100 | > 100 | > 100 | > 100 | > 100 | > 100 | > 100 | > 100 | > 100 | > 100 | > 100 | > 100 | – | – | – | – | –
2 | Cc1cc(-c2cscn2)c(O)c([N+](=O)[O-])c1 | – | > 100 | > 100 | > 100 | > 100 | > 100 | > 100 | > 100 | – | – | > 100 | > 100 | > 100 | > 100 | – | > 100 | > 100 | – | – | –
3 | CCSc1nnc(-c2ccccc2)nc1Cc1ccc(OC)cc1 | > 100 | > 100 | > 100 | > 100 | – | > 100 | > 100 | > 100 | > 100 | > 100 | > 100 | > 100 | > 100 | > 100 | > 100 | – | – | > 100 | – | –
4 | NNc1ncc2c(n1)-c1ccccc1OC2 | > 100 | > 100 | > 100 | > 100 | > 100 | > 100 | > 100 | > 100 | > 100 | > 100 | > 100 | > 100 | > 100 | 45.8 | > 100 | – | > 100 | > 100 | > 100 | > 100
5 | CCOC(=O)C1=C(c2ccccc2)N(C(C)=O)Cc2ccccc21 | 77.1 | > 100 | > 100 | > 100 | > 100 | 93.8 | > 100 | 34.6 | 43.2 | 50.5 | 38.2 | 35 | 30.9 | 37.5 | 51.7 | – | – | 36.8 | – | –
6 | O=c1oc2c/c(=C\c3ccccn3)c(=O)c3cccc1c3-2 | – | > 100 | > 100 | > 100 | > 100 | – | > 100 | > 100 | 39.4 | > 100 | – | > 100 | 57.4 | > 100 | > 100 | – | > 100 | – | > 100 | > 100
7 | CC(=O)NC(CCCNC(=O)OCc1ccccc1)C(=O)O (stereo not drawn) | > 100 | > 100 | > 100 | > 100 | > 100 | > 100 | > 100 | > 100 | > 100 | > 100 | > 100 | > 100 | > 100 | – | > 100 | – | – | > 100 | – | –
8 | CSc1nc2nc(C(O)C(O)C(O)CO)cnc2c(=O)[nH]1 (stereo not drawn) | > 100 | > 100 | – | > 100 | > 100 | > 100 | > 100 | > 100 | > 100 | > 100 | > 100 | > 100 | > 100 | > 100 | > 100 | – | – | > 100 | – | –
9 | C=C(C)CC(C)(c1cc2ccccc2n1C)N1CCOCC1 (stereo not drawn) | > 100 | > 100 | – | > 100 | – | > 100 | > 100 | > 100 | > 100 | > 100 | > 100 | > 100 | > 100 | > 100 | 60.9 | – | – | – | – | –
10 | CCC(C)[C@@H]1NC(=O)[C@@H]2CCCN2C(=O)C(CC(O)CO)OC(=O)CCNC(=O)[C@H](C)N(C)C(=O)[C@H](C(C)C)N(C)C1=O (stereo partly drawn) (cyclo([Ile(3ξ)][NMeV][NMeA][βAla][X22]P)) | > 100 | > 100 | > 100 | > 100 | > 100 | > 100 | > 100 | > 100 | > 100 | > 100 | > 100 | > 100 | > 100 | > 100 | – | – | – | > 100 | – | –
11 | CCOC(=O)CC(NCc1ccc(N=Cc2nc3ccc(C(F)(F)F)cc3nc2-c2ccccc2)cc1)C(=O)OCC (stereo not drawn) | > 77 | > 100 | > 100 | > 80.6 | > 100 | > 100 | > 100 | > 100 | > 100 | > 100 | > 73.3 | > 100 | > 58 | > 100 | > 100 | – | – | > 100 | – | –
12 | COC(=O)CCC(NC(=O)OC(C)(C)C)C(=O)NC(Cc1ccc([N+](=O)[O-])cc1)C(=O)NC(CCC(=O)OC)C(=O)OC (stereo not drawn) (Boc-Glu(OMe)-[Phe(4-NO2)]-Glu(OMe)-OMe; configuration not given here) | 80.9 | > 100 | > 100 | > 100 | > 100 | > 100 | > 100 | 25.3 | > 100 | > 100 | > 100 | > 100 | > 100 | – | > 100 | – | > 100 | – | > 100 | > 100
13 | C#CC(O)/C=C/C(O)CCCC(O)CC#CC(O)C#CC(O)CCCC(O)/C=C/CCCCCC(=O)CCCCCCCCCCCCCC(O)C(O)C#CC(=O)O (stereo not drawn) | 26 | > 50 | > 50 | > 50 | > 50 | > 50 | – | > 50 | – | > 50 | 47.3 | > 50 | – | > 50 | 18.3 | – | > 50 | > 50 | > 50 | 24.6
14 | COC(=O)C(Cc1nc2ccccc2[nH]c1=O)C(=O)C(=O)Nc1ccc(F)cc1 (stereo not drawn) | > 100 | > 100 | – | > 100 | – | > 100 | 42.8 | > 100 | > 100 | > 100 | > 100 | > 100 | > 100 | > 100 | 22.3 | – | – | – | – | –
